Activity calls are given as the source filed them. No cut-off for these calls is given here.
Columns and labels:
[1] = system: Rattus norvegicus; assay: Inhibition of L-T4-induced decrease in GSH level in albino Wistar rat liver at 5 mg/kg/day, po cotreated with 0.5 mg/kg L-T4 for 15 days; assay type: functional, organism-based
[2] = system: Rattus norvegicus; assay: Inhibition of L-T4-induced decrease in catalase activity in albino Wistar rat liver assessed as H2O2 decomposition at 5 mg/kg/day, po cotreated with 0.5 mg/kg L-T4 for 15 days by spectrophotmetry; assay type: functional, organism-based
[3] = system: Rattus norvegicus; assay: Inhibition of L-T4-induced decrease in SOD activity in albino Wistar rat liver at 5 mg/kg/day, po cotreated with 0.5 mg/kg L-T4 for 15 days; assay type: functional, organism-based
[4] = system: Rattus norvegicus; assay: Toxicity in albino Wistar rat assessed as high-density lipoprotein cholesterol level at 5 mg/kg/day, po for 15 days (reference value: 45.52 +/- 3.08 mg/dl); assay type: organism-based; conditions: in vivo, 360 h
[5] = system: Rattus norvegicus; assay: Toxicity in albino Wistar rat assessed as low-density lipoprotein cholesterol level at 5 mg/kg/day, po for 15 days (reference value: 83.85 +/- 2.96 mg/dl); assay type: organism-based; conditions: in vivo, 360 h
[6] = system: Rattus norvegicus; assay: Toxicity in albino Wistar rat assessed as triglyceride level at 5 mg/kg/day, po for 15 days (reference value: 73.33 +/- 3.1 mg/dl); assay type: organism-based; conditions: in vivo, 360 h
[7] = system: Rattus norvegicus; assay: Toxicity in albino Wistar rat assessed as total cholesterol level at 5 mg/kg/day, po for 15 days (reference value: 114.97 +/- 4.76 mg/dl); assay type: organism-based; conditions: in vivo, 360 h
[8] = system: Rattus norvegicus; assay: Inhibition of L-T4-induced decrease in high-density lipoprotein cholesterol in albino Wistar rat at 5 mg/kg/day, po cotreated with 0.5 mg/kg L-T4 for 15 days (reference value: 20.18 +/- 2.32 mg/dl); assay type: functional
[9] = system: Rattus norvegicus; assay: Inhibition of L-T4-induced decrease in low-density lipoprotein cholesterol in albino Wistar rat at 5 mg/kg/day, po cotreated with 0.5 mg/kg L-T4 for 15 days (reference value: 31.68 +/- 4.25 mg/dl); assay type: functional
[10] = system: Rattus norvegicus; assay: Inhibition of L-T4-induced decrease in triglyceride level in albino Wistar rat at 5 mg/kg/day, po cotreated with 0.5 mg/kg L-T4 for 15 days (reference value: 42.15 +/- 3.23 mg/dl); assay type: functional
[11] = system: Rattus norvegicus; assay: Inhibition of L-T4-induced loss of body weight in albino Wistar rat assessed as increase in body weight at 5 mg/kg/day, po cotreated with 0.5 mg/kg L-T4 for 15 days […]; assay type: functional, organism-based
[12] = system: Rattus norvegicus; assay: Inhibition of L-T4-induced increase in hepatic 5-monodeiodinase-l activity in albino Wistar rat assessed as T3 formation at 5 mg/kg/day, po cotreated with 0.5 mg/kg L-T4 for 15 days by RIA; assay type: functional, organism-based
[13] = system: Rattus norvegicus; assay: Inhibition of L-T4-induced increase in T4 level in albino Wistar rat at 5 mg/kg/day, po cotreated with 0.5 mg/kg L-T4 for 15 days by RIA (reference value: 112.86 +/- 4.77 ng/ml); assay type: functional
[14] = system: Rattus norvegicus; assay: Inhibition of L-T4-induced increase in T4 level in albino Wistar rat at 2.5 mg/kg/day, po cotreated with 0.5 mg/kg L-T4 for 15 days by RIA (reference value: 112.86 +/- 4.77 ng/ml); assay type: functional
[15] = system: Rattus norvegicus; assay: Inhibition of L-T4-induced increase in T3 level in albino Wistar rat at 10 mg/kg/day, po cotreated with 0.5 mg/kg L-T4 for 15 days by RIA (reference value: 1.55 +/- 0.131 ng/ml); assay type: functional
[16] = system: Rattus norvegicus; assay: Inhibition of L-T4-induced increase in T3 level in albino Wistar rat at 2.5 mg/kg/day, po cotreated with 0.5 mg/kg L-T4 for 15 days by RIA (reference value: 1.55 +/- 0.131 ng/ml); assay type: functional
[17] = system: Rattus norvegicus; assay: Inhibition of L-T4-induced increase in lipid peroxidation in albino Wistar rat assessed as malondialdehyde formed per mg of protein at 10 mg/kg/day, po cotreated with 0.5 mg/kg L-T4 for 15 days (reference value: 0.977 +/- 0.035 nM/hr); assay type: functional
[18] = system: Rattus norvegicus; assay: Inhibition of L-T4-induced increase in lipid peroxidation in albino Wistar rat assessed as malondialdehyde formed per mg of protein at 5 mg/kg/day, po cotreated with 0.5 mg/kg L-T4 for 15 days (reference value: 0.977 +/- 0.035 nM/hr); assay type: functional
[19] = system: Rattus norvegicus; assay: Inhibition of L-T4-induced increase in lipid peroxidation in albino Wistar rat assessed as malondialdehyde formed per mg of protein at 2.5 mg/kg/day, po cotreated with 0.5 mg/kg L-T4 for 15 days (reference value: 0.977 +/- 0.035 nM/hr); assay type: functional
[20] = system: Rattus norvegicus; assay: Inhibition of L-T4-induced decrease in very low-density lipoprotein cholesterol in albino Wistar rat at 5 mg/kg/day, po cotreated with 0.5 mg/kg L-T4 for 15 days (reference value: 8.65 +/- 2.76 mg/dl); assay type: functional
[21] = system: Rattus norvegicus; assay: Inhibition of L-T4-induced increase in T4 level in albino Wistar rat at 10 mg/kg/day, po cotreated with 0.5 mg/kg L-T4 for 15 days by RIA (reference value: 112.86 +/- 4.77 ng/ml); assay type: functional
[22] = system: Rattus norvegicus; assay: Inhibition of L-T4-induced increase in T3 level in albino Wistar rat at 5 mg/kg/day, po cotreated with 0.5 mg/kg/day L-T4 for 15 days by RIA (reference value: 1.55 +/- 0.131 ng/ml); assay type: functional
[23] = system: Rattus norvegicus; assay: Toxicity in albino Wistar rat assessed as very low-density lipoprotein cholesterol level at 5 mg/kg/day, po for 15 days (reference value: 14.85 +/- 2.43 mg/dl); assay type: organism-based; conditions: in vivo, 360 h
[24] = system: Rattus norvegicus; assay: Inhibition of L-T4-induced decrease in total cholesterol level in albino Wistar rat at 5 mg/kg/day, po cotreated with 0.5 mg/kg L-T4 for 15 days (reference value: 58.77 +/- 3.95 mg/dl); assay type: functional
[25] = system: Rattus norvegicus; assay: Inhibition of L-T4-induced increase in Glucose-6-phosphate activity in albino Wistar rat at 5 mg/kg/day, po cotreated with 0.5 mg/kg L-T4 for 15 days […]; assay type: functional, organism-based

With `COc1cc(-c2cc(=O)c3c(O[C@@H]4O[C@@H](C)[C@H](O)[C@@H](O)[C@H]4O)c(OC)c(O)cc3o2)ccc1O` the inhibition [1] was “Active”, the inhibition [2] was “Active” and the inhibition [3] was “Active”. For the same compound, the Activity [4] was 48.97 mg/dL, the Activity [5] was 60.16 mg/dL and the Activity [6] was 61.1 mg/dL. For the same compound, the Activity [7] was 96.22 mg/dL, the Activity [8] was 40.95 mg/dL and the Activity [9] was 72.42 mg/dL. For the same compound, the Activity [10] was 68.31 mg/dL, the Activity [11] was “Active” and the inhibition [12] was “Active”. For the same compound, the Activity [13] was 56.7 ng/mL, the Activity [14] was 98.6 ng/mL and the Activity [15] was 1.39 ng/mL. For the same compound, the Activity [16] was 1.01 ng/mL, the Activity [17] was 0.512 nM/h and the Activity [18] was 0.239 nM/h. For the same compound, the Activity [19] was 0.619 nM/h, the Activity [20] was 14.09 mg/dL and the Activity [21] was 102.45 ng/mL. It also gave an Activity [22] of 0.43 ng/mL, an Activity [23] of 12.91 mg/dL and an Activity [24] of 98.14 mg/dL. For the same compound, the inhibition [25] was “Active”.
